Measured values from ChEMBL document CHEMBL4602617, “Discovery and optimization of heteroaryl piperazines as potent and selective PI3Kδ inhibitors” (Bioorg Med Chem Lett, 2020).

Legend:
[1] = biological target: PI3-kinase p110-delta/p85-alpha (Homo sapiens, UniProt O00329); test: Inhibition of recombinant human full-length N-terminal GST-tagged p110delta/untagged full-length p85alpha expressed in baculovirus infected Sf21 cells using PIP2 as substrate preincubated for 15 mins followed by substrate addition and measured after 1 hr by HTRF assay
[2] = biological target: Tyrosine-protein kinase receptor UFO (Homo sapiens, UniProt P30530); test: Inhibition of recombinant full length human GST-tagged AXL expressed in insect expression system using tyrosine-6 peptide as substrate incubated for 60 mins in presence of ATP by Z'-LYTE assay
[3] = biological target: Tyrosine-protein kinase ABL1 (Homo sapiens, UniProt P00519); test: Inhibition of recombinant full length human His-tagged ABL1 cytoplasmic domain expressed in baculovirus expression system using tyrosine-2 peptide as substrate incubated for 60 mins in presence of ATP by Z'-LYTE assay
Sequence of Tyrosine-protein kinase ABL1 (P00519 whole entry, the tested form may be a part): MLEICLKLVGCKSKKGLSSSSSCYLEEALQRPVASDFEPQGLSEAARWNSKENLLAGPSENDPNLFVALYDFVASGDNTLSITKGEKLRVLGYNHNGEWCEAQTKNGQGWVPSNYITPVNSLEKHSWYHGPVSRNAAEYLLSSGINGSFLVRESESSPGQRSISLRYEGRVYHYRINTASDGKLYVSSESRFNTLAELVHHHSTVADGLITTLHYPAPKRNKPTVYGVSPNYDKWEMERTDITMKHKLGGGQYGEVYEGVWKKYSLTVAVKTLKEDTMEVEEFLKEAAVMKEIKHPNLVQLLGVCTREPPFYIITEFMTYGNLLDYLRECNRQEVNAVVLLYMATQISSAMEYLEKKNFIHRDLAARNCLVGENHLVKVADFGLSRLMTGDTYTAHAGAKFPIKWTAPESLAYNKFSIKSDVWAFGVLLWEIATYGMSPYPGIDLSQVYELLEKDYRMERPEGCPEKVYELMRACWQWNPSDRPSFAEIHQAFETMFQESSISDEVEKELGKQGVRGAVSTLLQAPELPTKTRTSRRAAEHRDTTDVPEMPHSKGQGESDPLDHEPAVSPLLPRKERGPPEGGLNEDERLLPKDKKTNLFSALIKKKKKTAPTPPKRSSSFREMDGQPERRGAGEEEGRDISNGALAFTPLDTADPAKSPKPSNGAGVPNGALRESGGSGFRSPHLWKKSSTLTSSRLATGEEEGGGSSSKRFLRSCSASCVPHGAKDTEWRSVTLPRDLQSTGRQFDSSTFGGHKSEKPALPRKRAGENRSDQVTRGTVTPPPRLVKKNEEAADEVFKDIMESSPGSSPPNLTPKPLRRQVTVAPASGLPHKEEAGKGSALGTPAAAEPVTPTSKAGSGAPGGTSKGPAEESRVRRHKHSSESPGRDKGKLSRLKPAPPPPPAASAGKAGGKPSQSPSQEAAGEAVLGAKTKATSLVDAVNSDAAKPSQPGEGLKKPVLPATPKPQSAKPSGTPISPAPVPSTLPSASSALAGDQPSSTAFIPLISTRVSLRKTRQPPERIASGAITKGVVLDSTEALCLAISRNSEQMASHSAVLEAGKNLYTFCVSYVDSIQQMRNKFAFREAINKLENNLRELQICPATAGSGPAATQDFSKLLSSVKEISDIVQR

[4] = biological target: Vasopressin V2 receptor (Homo sapiens) (UniProt P30518); test: Displacement of [3H]-(Arg8)-Vasopressin from recombinant full length human V2 receptor expressed in CHO-K1 cells at 10 uM after 120 mins by radiometric scintillation analysis relative to control; type: cell-based
[5] = biological target: 5-hydroxytryptamine receptor 2B (Homo sapiens) (UniProt P41595); test: Displacement of [3H]lysergic acid diethylamide from full length human recombinant 5HT2B receptor expressed in CHOK-1 cells at 10 uM measured after 60 mins by radiometric scintillation analysis relative to control; type: cell-based
[6] = biological target: Endothelin receptor type B (Homo sapiens) (UniProt P24530); test: Displacement of [125I]endothelin-1 from recombinant full length human recombinant ETB receptor expressed in CHO-K1 cells at 10 uM measured after 120 mins by radiometric scintillation analysis relative to control; type: cell-based
Sequence of Endothelin receptor type B (Homo sapiens) (P24530 whole entry): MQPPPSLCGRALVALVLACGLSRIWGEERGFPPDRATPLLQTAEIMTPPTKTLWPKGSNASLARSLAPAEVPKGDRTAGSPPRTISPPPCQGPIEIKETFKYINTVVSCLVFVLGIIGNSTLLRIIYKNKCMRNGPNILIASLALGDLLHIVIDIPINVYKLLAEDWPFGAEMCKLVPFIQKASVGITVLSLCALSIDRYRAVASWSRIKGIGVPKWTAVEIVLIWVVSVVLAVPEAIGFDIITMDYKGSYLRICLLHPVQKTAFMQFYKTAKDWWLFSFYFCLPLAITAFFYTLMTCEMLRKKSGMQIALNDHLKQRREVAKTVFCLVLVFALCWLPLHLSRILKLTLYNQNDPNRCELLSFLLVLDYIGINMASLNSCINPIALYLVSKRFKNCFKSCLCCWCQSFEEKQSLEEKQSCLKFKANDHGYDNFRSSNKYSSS

[7] = biological target: Cholecystokinin receptor type A (Homo sapiens) (UniProt P32238); test: Displacement of [3H]L-364,718 from recombinant full length human recombinant CCK1 expressed in 1321-N1 cells at 10 uM measured after 60 mins by radiometric scintillation analysis relative to control; type: cell-based
Sequence of Cholecystokinin receptor type A (Homo sapiens) (P32238 whole entry): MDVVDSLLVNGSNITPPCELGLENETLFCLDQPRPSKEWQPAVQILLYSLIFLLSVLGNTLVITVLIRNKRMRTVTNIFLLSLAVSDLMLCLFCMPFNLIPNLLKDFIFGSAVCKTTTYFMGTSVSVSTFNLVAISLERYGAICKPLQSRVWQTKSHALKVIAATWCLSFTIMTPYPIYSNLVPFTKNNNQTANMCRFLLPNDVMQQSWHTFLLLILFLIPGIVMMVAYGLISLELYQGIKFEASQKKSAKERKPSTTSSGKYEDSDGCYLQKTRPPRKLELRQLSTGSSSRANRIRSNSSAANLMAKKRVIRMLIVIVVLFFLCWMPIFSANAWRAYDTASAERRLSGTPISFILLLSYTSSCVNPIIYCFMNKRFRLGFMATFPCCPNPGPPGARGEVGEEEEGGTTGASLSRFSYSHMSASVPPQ

[8] = biological target: C-C chemokine receptor type 1 (Homo sapiens) (UniProt P32246); test: Displacement of [125I]MIP-1alpha from recombinant full length human recombinant CCR1 expressed in Chem2 cells at 10 uM measured after 3 hrs by radiometric scintillation analysis relative to control; type: cell-based
[9] = biological target: Adenosine receptor A1 (Homo sapiens) (UniProt P30542); test: Displacement of [3H]DPCPX from full length recombinant human A1AR expressed in CHO cell membranes at 10 uM measured after 90 mins by scintillation counting method relative to control
[10] = biological target: Cathepsin G (Homo sapiens) (UniProt P08311); test: Inhibition of endogenous human cathepsin G at 10 uM using Suc-Ala-Ala-Pro-Phe-AMC as substrate after 30 mins by spectrophotometric analysis relative to control
[11] = biological target: Dual specificity protein kinase CLK3 (Homo sapiens, UniProt P49761); test: Inhibition of recombinant full length human GST-tagged CLK3 expressed in baculovirus expression system using serine/threonine-18 peptide as substrate incubated for 60 mins in presence of ATP by Z'-LYTE assay
[12] = biological target: Casein kinase II subunit alpha' (Homo sapiens, UniProt P19784); test: Inhibition of recombinant human full-length GST-tagged CSNK2A2 expressed in baculovirus expression system using FRET-labeled Ser/Thr 11 peptide as substrate measured after 1 hr in presence of ATP by Z'-lyte assay
[13] = biological target: Death-associated protein kinase 1 (Homo sapiens, UniProt P53355); test: Inhibition of recombinant human GST-tagged DAPK1 catalytic domain (1 to 363 residues) expressed in baculovirus expression system using ZIPtide peptide as substrate incubated for 60 mins in presence of ATP by Adapta assay
Ephrin type-A receptor 2 = Ephrin type-A receptor 2 (Homo sapiens, UniProt P29317); test: Inhibition of recombinant human GST-tagged EPHA2 cytoplasmic domain expressed in baculovirus expression system using tyrosine-01 peptide as substrate incubated for 60 mins in presence of ATP by Z'-Lyte assay
Ephrin type-B receptor 4 = Ephrin type-B receptor 4 (Homo sapiens, UniProt P54760); test: Inhibition of recombinant human His-tagged EPHB4 (561 to 987 residues) catalytic domain expressed in baculovirus expression system using tyrosine-01 peptide as substrate incubated for 60 mins in presence of ATP by Z'-LYTE assay
Sequence of Ephrin type-B receptor 4 (P54760 whole entry, the tested form may be a part): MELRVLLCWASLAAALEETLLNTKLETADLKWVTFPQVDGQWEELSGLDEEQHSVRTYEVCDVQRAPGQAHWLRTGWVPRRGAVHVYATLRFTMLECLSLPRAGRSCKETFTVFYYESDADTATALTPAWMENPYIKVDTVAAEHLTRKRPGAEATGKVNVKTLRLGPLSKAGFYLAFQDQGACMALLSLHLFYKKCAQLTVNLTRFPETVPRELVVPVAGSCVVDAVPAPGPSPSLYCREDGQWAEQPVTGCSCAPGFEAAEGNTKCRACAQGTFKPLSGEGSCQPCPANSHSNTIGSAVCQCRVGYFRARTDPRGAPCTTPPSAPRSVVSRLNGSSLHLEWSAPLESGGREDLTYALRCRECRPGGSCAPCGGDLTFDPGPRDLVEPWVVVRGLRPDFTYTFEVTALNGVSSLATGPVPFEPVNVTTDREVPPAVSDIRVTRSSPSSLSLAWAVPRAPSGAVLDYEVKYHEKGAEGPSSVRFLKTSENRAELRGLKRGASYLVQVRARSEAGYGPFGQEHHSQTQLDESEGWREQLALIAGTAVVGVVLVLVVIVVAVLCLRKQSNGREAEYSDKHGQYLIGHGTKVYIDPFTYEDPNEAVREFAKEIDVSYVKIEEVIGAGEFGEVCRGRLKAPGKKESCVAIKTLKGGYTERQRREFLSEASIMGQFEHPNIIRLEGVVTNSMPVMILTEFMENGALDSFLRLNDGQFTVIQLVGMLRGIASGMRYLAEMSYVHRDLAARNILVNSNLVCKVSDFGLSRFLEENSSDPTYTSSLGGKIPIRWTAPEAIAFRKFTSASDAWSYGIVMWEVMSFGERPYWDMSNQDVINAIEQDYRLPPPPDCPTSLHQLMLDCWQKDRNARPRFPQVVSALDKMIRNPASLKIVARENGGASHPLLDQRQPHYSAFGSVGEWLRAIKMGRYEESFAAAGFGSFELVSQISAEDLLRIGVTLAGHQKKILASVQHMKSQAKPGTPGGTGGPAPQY

[14] = biological target: Vascular endothelial growth factor receptor 3 (Homo sapiens, UniProt P35916); test: Inhibition of recombinant human GST-tagged FLT4 cytoplasmic domain expressed in baculovirus expression system after 1 using tyrosine 4 as substrate after 1 hr in presence of ATP by ZYLTE assay
Sequence of Vascular endothelial growth factor receptor 3 (P35916 whole entry, the tested form may be a part): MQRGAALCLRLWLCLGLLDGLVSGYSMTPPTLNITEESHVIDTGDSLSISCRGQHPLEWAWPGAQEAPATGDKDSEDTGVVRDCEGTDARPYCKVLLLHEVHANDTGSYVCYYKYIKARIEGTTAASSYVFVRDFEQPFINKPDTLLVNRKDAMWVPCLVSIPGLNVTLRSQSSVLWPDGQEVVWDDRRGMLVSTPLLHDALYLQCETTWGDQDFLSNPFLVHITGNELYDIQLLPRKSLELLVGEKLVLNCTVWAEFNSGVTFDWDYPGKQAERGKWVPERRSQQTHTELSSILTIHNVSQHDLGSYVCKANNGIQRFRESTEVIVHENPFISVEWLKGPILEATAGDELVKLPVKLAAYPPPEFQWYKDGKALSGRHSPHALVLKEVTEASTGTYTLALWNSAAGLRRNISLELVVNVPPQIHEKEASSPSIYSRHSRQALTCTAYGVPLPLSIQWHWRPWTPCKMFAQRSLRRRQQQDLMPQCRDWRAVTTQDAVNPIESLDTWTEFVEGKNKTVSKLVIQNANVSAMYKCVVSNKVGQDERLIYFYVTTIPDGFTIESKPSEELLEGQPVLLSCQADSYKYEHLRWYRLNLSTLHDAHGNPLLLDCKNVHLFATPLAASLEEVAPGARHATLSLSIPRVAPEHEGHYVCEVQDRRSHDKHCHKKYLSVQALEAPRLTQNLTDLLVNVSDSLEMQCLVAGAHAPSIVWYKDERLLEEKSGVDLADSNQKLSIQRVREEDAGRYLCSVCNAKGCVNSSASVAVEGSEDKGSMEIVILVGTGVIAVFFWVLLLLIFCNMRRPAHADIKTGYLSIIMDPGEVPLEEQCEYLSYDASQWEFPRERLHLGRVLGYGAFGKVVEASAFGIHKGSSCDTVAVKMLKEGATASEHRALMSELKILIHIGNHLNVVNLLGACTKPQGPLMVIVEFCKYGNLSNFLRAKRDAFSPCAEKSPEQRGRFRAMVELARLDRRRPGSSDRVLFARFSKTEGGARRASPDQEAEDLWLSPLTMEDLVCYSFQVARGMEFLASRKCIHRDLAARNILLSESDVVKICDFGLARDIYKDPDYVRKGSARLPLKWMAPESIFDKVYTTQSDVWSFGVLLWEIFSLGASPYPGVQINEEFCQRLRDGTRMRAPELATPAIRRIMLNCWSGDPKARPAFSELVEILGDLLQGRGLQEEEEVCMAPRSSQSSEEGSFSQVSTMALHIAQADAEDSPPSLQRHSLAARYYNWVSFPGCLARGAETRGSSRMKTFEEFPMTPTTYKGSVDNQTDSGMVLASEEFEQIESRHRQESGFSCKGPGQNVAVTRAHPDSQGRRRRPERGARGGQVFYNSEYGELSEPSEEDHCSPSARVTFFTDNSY

[15] = biological target: Interleukin-1 receptor-associated kinase 4 (Homo sapiens, UniProt Q9NWZ3); test: Inhibition of recombinant full length human His-tagged IRAK4 expressed in baculovirus expression system using serine/threonine-7 peptide as substrate incubated for 60 mins in presence of ATP by Z'-LYTE assay
[16] = biological target: Tyrosine-protein kinase JAK2 (Homo sapiens, UniProt O60674); test: Inhibition of human recombinant GST tagged JAK2 catalytic domain expressed in baculovirus expression system using Tyr6 peptide as substrate measured after 1 hr in presence of ATP by Z'-LYTE assay
[17] = biological target: Leucine-rich repeat serine/threonine-protein kinase 2 (Homo sapiens, UniProt Q5S007); test: Inhibition of recombinant human GST-tagged LRRK2 catalytic domain (970 to 2527 amino acids) expressed in baculovirus expression system using ERM (LRRKtide) peptide as substrate incubated for 60 mins in presence of ATP by Adapta assay
[18] = biological target: Platelet-derived growth factor receptor alpha (Homo sapiens, UniProt P16234, V561D); test: Inhibition of recombinant human GST-tagged PDGFRalpha V561D mutant cytoplasmic domain expressed in baculovirus expression system using tyrosine-4 peptide as substrate incubated for 60 mins in presence of ATP by Z'-LYTE assay
[19] = biological target: Protein kinase C delta type (Homo sapiens, UniProt Q05655); test: Inhibition of recombinant full length human GST-tagged PRKCD expressed in insect expression system using serine/threonine-7 peptide as substrate incubated for 60 mins in presence of ATP by Z'-LYTE assay
[20] = biological target: Protein-tyrosine kinase 2-beta (Homo sapiens, UniProt Q14289); test: Inhibition of recombinant full length human N-terminal GST-tagged PTK2B cytoplasmic domain expressed in baculovirus expression system using tyr01 peptide as substrate incubated for 60 mins in presence of ATP by Z'-LYTE assay
[21] = biological target: Serine/threonine-protein kinase Sgk3 (Homo sapiens, UniProt Q96BR1); test: Inhibition of recombinant human GST-tagged SGK3 catalytic domain (87 to 496 residues) expressed in baculovirus expression system using serine/threonine-6 peptide as substrate incubated for 60 mins in presence of ATP by Z'-LYTE assay
Sequence of Serine/threonine-protein kinase Sgk3 (Q96BR1 whole entry, the tested form may be a part): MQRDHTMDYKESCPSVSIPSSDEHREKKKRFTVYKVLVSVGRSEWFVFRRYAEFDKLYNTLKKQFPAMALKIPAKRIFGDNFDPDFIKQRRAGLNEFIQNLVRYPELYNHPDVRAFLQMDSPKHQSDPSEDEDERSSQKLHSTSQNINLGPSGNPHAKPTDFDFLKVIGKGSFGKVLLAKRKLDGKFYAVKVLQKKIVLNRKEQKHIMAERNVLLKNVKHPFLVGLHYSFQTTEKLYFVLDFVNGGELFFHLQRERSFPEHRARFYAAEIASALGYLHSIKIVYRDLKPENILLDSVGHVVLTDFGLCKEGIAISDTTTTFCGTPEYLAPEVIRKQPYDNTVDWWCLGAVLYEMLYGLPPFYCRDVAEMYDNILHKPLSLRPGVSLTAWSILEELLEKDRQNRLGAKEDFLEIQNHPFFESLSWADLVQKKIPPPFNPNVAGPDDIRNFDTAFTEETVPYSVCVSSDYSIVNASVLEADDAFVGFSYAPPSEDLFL

[22] = biological target: Tyrosine-protein kinase Srms (Homo sapiens, UniProt Q9H3Y6); test: Inhibition of recombinant full length human GST-tagged SRM expressed in baculovirus expression system using tyrosine-1 peptide as substrate incubated for 60 mins in presence of ATP by Z'-LYTE assay

**Q.** What does the source list for `C[C@@H]1C[C@H]1C(=O)N1CCN(c2cnc(C#N)c(-c3cnn(C)c3)n2)C[C@H]1C`?
**A.** IC50 [1]: 0.009 µM; IC50 [2]: > 100 µM; IC50 [3]: > 100 µM; inhibition [4]: 1%; inhibition [5]: 19%; inhibition [6]: 2%; inhibition [7]: 3%; inhibition [8]: 8%; inhibition [9]: 10%; inhibition [10]: 6%; IC50 [11]: > 100 µM; IC50 [12]: > 100 µM; IC50 [13]: > 100 µM; IC50 (Ephrin type-A receptor 2): > 100 µM; IC50 (Ephrin type-B receptor 4): > 100 µM; IC50 [14]: > 100 µM; IC50 [15]: > 100 µM; IC50 [16]: > 100 µM; IC50 [17]: > 100 µM; IC50 [18]: > 100 µM; IC50 [19]: > 100 µM; IC50 [20]: > 100 µM; IC50 [21]: > 100 µM; IC50 [22]: > 100 µM
